Literature values as cited in patent US11730740B2, “Laureth-4 containing topical formulations” (ARCUTIS BIOTHERAPEUTICS, INC., priority 2020, dated 2023).

Columns and labels:
[1] = biological target: JAK 1 (Homo sapiens, UniProt P23458); conditions: statement in words
[2] = 10% adjuvant in propylene glycol; infinite dosing 278 μl/cm^2; PG alone control 1.6±0.4
[3] = 10% w/w surfactant in white petrolatum with 10% salicylic acid and 10% DMSO; 5.0 grams on 6.4×12.7 cm^2 skin; 8 hr

Sequence of JAK 1 (P23458 whole entry, species assumed): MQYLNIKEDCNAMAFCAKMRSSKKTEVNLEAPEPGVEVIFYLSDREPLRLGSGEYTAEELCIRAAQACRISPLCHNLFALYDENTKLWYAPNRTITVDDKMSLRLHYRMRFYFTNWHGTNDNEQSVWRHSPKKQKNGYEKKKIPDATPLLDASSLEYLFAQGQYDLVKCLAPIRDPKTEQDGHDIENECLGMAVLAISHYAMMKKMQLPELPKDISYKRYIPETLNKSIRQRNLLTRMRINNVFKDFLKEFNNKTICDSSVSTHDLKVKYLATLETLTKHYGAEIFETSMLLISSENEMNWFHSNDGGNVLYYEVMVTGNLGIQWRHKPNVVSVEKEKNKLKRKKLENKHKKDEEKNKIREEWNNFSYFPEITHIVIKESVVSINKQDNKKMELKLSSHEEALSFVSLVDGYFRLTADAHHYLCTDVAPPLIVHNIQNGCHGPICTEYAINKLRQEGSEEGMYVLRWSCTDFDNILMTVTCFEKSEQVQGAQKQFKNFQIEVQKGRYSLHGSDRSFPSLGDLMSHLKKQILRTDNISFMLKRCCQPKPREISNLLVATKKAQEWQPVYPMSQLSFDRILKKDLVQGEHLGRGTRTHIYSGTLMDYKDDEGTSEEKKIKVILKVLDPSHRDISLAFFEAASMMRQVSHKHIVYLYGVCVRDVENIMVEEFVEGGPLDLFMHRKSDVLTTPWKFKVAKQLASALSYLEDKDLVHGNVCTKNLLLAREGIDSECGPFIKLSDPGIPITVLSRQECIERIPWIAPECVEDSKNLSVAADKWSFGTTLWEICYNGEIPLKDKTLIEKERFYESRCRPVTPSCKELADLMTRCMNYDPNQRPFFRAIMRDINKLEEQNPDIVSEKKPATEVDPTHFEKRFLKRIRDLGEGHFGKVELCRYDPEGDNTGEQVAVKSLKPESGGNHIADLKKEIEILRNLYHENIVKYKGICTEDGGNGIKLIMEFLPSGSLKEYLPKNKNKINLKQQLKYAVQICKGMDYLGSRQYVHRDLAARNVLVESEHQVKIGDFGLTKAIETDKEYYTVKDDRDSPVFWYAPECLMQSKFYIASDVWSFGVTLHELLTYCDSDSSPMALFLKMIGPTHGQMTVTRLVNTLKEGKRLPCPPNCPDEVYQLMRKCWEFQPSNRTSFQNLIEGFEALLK

Row | Compound | naloxone flux [2] | other results
1 | CCC[C@@H]1C[C@@H](C(=O)N[C@@H]([C@H]2O[C@H](SC)[C@H](OP(=O)(O)O)[C@@H](O)[C@H]2O)[C@H](C)Cl)N(C)C1 [Clindamycin phosphate] | – | solubility in water (without the addition of laureth-4): readily soluble
2 | COc1nsc(NC(=O)N2C[C@H]3C[C@H](N(C)c4ncnc5[nH]ccc45)C[C@H]3C2)n1 [SHR0302, (3 aR,5 S,6aS)—N-(3-methoxyl-1,2,4-thiadiazol-5-yl)-5-(methyl(7H-pyrrolo[2,3-d]pyrimidin-4-yl)amino)hexahydrocyclopenta[c]pyrrole-2(1H)-carboxamide] | – | inhibition of JAK 1 [1]: potent; selectivity for JAK1 over JAK2 [1]: high
3 | CCCCCCCCCC(=O)O [capric acid] | 187.9±67.5 μg/cm^2-hr | –
4 | CCCCCCCCCCCCOCCOCCOCCOCCO [laureth-4, tetraethylene glycol monododecyl ether] | 34.5±8.3 μg/cm^2-hr | percutaneous absorption of salicylic acid [3]: increased significantly
5 | CCCCCCCCCCCC(=O)O [lauric acid] | 235.2 μg/cm^2-hr | –
6 | CCCCCCCCCCCCO [lauryl alcohol] | 45.8 μg/cm^2-hr | –
7 | CC/C=C\C/C=C\C/C=C\CCCCCCCC(=O)O [linolenic acid 18:2, linolenic acid] | 103.0 μg/cm^2-hr | –
8 | CC/C=C\C/C=C\C/C=C\CCCCCCCCO [linolenyl alcohol] | 116.3 μg/cm^2-hr | –
9 | CCCCCCCCC(=O)O [pelargonic acid] | 201.9±65.4 μg/cm^2-hr | –
10 | CC1=C(/C=C/C(C)=C/C=C/C(C)=C/C(=O)O)C(C)(C)CCC1 [tretinoin] | – | solubility of tretinoin in VELTIN Gel (with laureth-4 (3%) and propylene glycol): 0.025%
11 | polyoxyethylene 2 oleyl ether | – | percutaneous absorption of salicylic acid [3]: increased significantly
12 | propylene glycol laurate | 43.8±5.5 μg/cm^2-hr | –
13 | sorbitan monopalmitate | – | percutaneous absorption of salicylic acid [3]: increased significantly
14 | sorbitan trioleate | – | percutaneous absorption of salicylic acid [3]: increased significantly
